# From ChEMBL document CHEMBL1133267, “The total synthesis of piclavines A1-4 and their biological evaluation” (Bioorg Med Chem Lett, 2000)
# Active and inactive are the calls of the source. The calls are words filed in the database; no cut-off is given here.
# Columns and labels:
# Human alphaherpesvirus 1 = test: Compound was evaluated for antiviral activity against Herpes simplex virus type 1; ND means Not detected owing to toxicity; format: functional, organism-based
# Vero = test: Compound was evaluated for inhibition of cell growth of Vero cells; format: functional; settings: Chlorocebus sabaeus
# MDCK = test: Compound was evaluated for inhibition of MDCK cell growth; format: functional; settings: Canis lupus familiaris
# Influenza A virus = test: Compound was evaluated for antiviral activity against Influenza virus A/PR/8; format: functional, organism-based
# Streptococcus pneumoniae [1] = test: Compound was evaluated for antibacterial activity against Streptococcus pneumoniae; IA means Inactive; format: functional, organism-based
# Streptococcus pneumoniae [2] = test: Compound was evaluated for antibacterial activity against Streptococcus pneumoniae; weak activity; format: functional, organism-based
# Candida albicans = test: Compound was evaluated for inhibitory activity on Candida albicans; active; format: functional, organism-based
Compound,IC50 (Human alphaherpesvirus 1),CC50 (Vero) [µg/mL],CC50 (MDCK) [µg/mL],IC50 (Influenza A virus) [µg/mL],Activity (Streptococcus pneumoniae [1]),Activity (Streptococcus pneumoniae [2]),Activity (Candida albicans)
CCCCCCC/C=C\C[C@@H]1CCC[C@@H]2CCCN21,Not detected,40.9,17.1,4.2,inactive,,
CCCCCCC/C=C/C[C@@H]1CCC[C@@H]2CCCN21,Not detected,42.3,20.1,1.45,inactive,,
CCCCCCC/C=C/C[C@H]1CCC[C@@H]2CCCN21,Not detected,9.18,8.92,4.84,,weak activity,
CCCCCCC/C=C\C[C@H]1CCC[C@@H]2CCCN21,Not detected,7.67,9.28,3.72,,weak activity,Active
